Measurements as given in PMC2410218, “Identification of an HLA-A^*0201-restricted T-cell epitope derived from the prostate cancer-associated protein prostein” (British Journal of Cancer, 2004).

Legend:
[1] = system: T2 cells pulsed with the individual peptides; assay: 51Cr release assay: in vitro-stimulated CD8+ T cells against peptide-pulsed T2 cells; format: cell-based, human; settings: CD8+ T cells stimulated four times with peptide-pulsed autologous DCs (20 μg ml^-1 of each peptide); T2 cells pulsed at 50 μg ml^-1; E:T 20:1; 4 h 51Cr release; triplicates
Description: Briefly, peripheral blood mononuclear cells were prepared from blood samples by Ficoll–Hypaque (Biochrom) density centrifugation. Monocytes were isolated by immunomagnetic cell separation with an anti-CD14 antibody coupled to paramagnetic microbeads (Miltenyi Biotech, Bergisch Gladbach, Germany) according to the manufacturer's instructions. Mature monocyte-derived dendritic cells (DCs) were generated as described previously ([Schmitz et al, 2000]).
After washing 2 × 10^5 peptide-loaded DCs were cocultured with 2 × 10^6 immunomagnetically isolated CD8+ T cells well^−1 of a 24-well tissue culture plate (Greiner, Frickenhausen, Germany). […] The T cells were cultured in 2 ml RPMI 1640 medium well^−1 supplemented with 10% human serum (CCpro, Neustadt, Germany), 100 U ml^−1 IL-2 and 10 ng ml^−1 IL-7 (both from Strathmann Biotech, Hanover, Germany). After 7 days, cultures were washed and restimulated with peptide-loaded DCs at a responder to stimulator ratio of 5 : 1. After three rounds of weekly restimulation, the cultures were tested for the presence of prostein-specific CTLs. […]

LNCaP 1740 cells = assay: 51Cr release assay: peptide-activated CD8+ T cells against LNCaP 1740 cells; format: cell-based, human
Description: (§1) Briefly, LNCaP 1740 cells were cultured for 24 h in phenol red-free RPMI (Life Technologies) supplemented with 1% nonessential amino acids, 10 mM HEPES (Life Technologies) and 10% charcoal-stripped FCS (Biochrom). The cultivation was continued for additional 48 h in the androgen-depleted medium or in the presence of 1 nM of the synthetic androgen R1881 (Perkin-Elmer Life Sciences, Rodgau-Jügesheim, Germany). Subsequently, the cells were harvested and were used as target cells in a chromium release assay.
After washing 2 × 10^5 peptide-loaded DCs were cocultured with 2 × 10^6 immunomagnetically isolated CD8+ T cells well^−1 of a 24-well tissue culture plate (Greiner, Frickenhausen, Germany). […] After 7 days, cultures were washed and restimulated with peptide-loaded DCs at a responder to stimulator ratio of 5 : 1. After three rounds of weekly restimulation, the cultures were tested for the presence of prostein-specific CTLs.
The HLA-A2 restriction of CD8+ T-cell-mediated lysis was tested at an effector cell to target cell ratio of 30 : 1 in the presence of the anti-HLA-A2 monoclonal antibody derived from the MA2.1 hybridoma (American Type Culture Collection) at a final concentration of 1 μg ml^−1.

K562 cells = assay: 51Cr release assay: peptide-activated CD8+ T cells against K562 cells; format: cell-based, human; settings: E:T 3:1, 10:1, 30:1; 4 h 51Cr release
Description: After washing 2 × 10^5 peptide-loaded DCs were cocultured with 2 × 10^6 immunomagnetically isolated CD8+ T cells well^−1 of a 24-well tissue culture plate (Greiner, Frickenhausen, Germany). […] The T cells were cultured in 2 ml RPMI 1640 medium well^−1 supplemented with 10% human serum (CCpro, Neustadt, Germany), 100 U ml^−1 IL-2 and 10 ng ml^−1 IL-7 (both from Strathmann Biotech, Hanover, Germany). After 7 days, cultures were washed and restimulated with peptide-loaded DCs at a responder to stimulator ratio of 5 : 1. After three rounds of weekly restimulation, the cultures were tested for the presence of prostein-specific CTLs.
Cytotoxic activity of the in vitro-stimulated CTLs was assayed against the HLA-A^*0201-positive mutant cell line T2 pulsed with the individual prostein-derived peptides or an irrelevant HLA-A^*0201-binding peptide from HIV-1 reverse transcriptase at a concentration of 50 μg ml^−1, against the PCa cell line LNCaP 1740, the melanoma cell line 93.04A12.1 and against K562 cells as targets in a 4 h standard ^51Cr release assay as described previously ([Kiessling et al, 2002]). The HLA-A2 restriction of CD8+ T-cell-mediated lysis was tested at an effector cell to target cell ratio of 30 : 1 in the presence of the anti-HLA-A2 monoclonal antibody derived from the MA2.1 hybridoma (American Type Culture Collection) at a final concentration of 1 μg ml^−1.

HLA-A^*0201 = target: T1, HLA-A^*0201 (Homo sapiens, UniProt P04439, D140Y/D185E/D98H/E176V/E277Q/G131W/G231S/I119V/I121R/I166T/I218V/L300P/L318F/N151K/N90K/P208A/P217A/Q86G/Q94H/R138H/R169H/T345S); assay: Fluorescence-based competition assay on B-cell lines LCL721 or JY; settings: inhibition of binding of reporter peptide ILK(FITC)EPVHGV relative to positive control peptide YLLPAIVHI set as 100%; all peptides at 10 μM; LCL721 or JY cells, no acid strip; flow cytometry
T1 construct: endogenous in cells; host or cells: B-cell lines LCL721 or JY
Description: Binding studies of potential HLA-A^*0201 fitting peptides were carried out using the B-cell lines LCL721 or JY and a fluorescence-based competition assay, essentially as described by [van der Burg et al (1995)], but without performing acid strip. Reporter peptide was ILK(FITC)EPVHGV from HIV-1 reverse transcriptase and positive control was […] from RNA helicase p72. Fluorescence intensities were recorded by flow cytometry (FACSCALIBUR; Becton Dickinson, Heidelberg, Germany).

[2] = system: prostein mRNA expression in LNCaP 1740 cells; assay: Quantitative RT-PCR of prostein transcripts in LNCaP 1740 cells under androgen deprivation or stimulation; format: cell-based, human; settings: 1 nM R1881 for 48 h; real-time PCR normalised to HPRT; means of two LC runs
Description: as §1, with “The androgen deprivation and stimulation experiments were performed as described previously ([Xu et al, 2001]). Briefly,” for “Briefly,”
The mRNA quantity of prostein was determined using a LightCycler (LC)-based real-time PCR protocol based on SYBR Green I detection (LC – FastStart DNA Master SYBR Green I; Roche Diagnostics, Mannheim, Germany) and the primer pair Prostein_N1 (5′-[…]-3′) and Prostein_C1 (5′-[…]-3′) to amplify a 240 bp cDNA fragment spanning two exons.
The mRNA copy number was adjusted to the RT–PCR product quantity of hypoxanthine phosphoribosyltransferase (HPRT) determined by LC technique using the primer pair HPRT_N1 (5′-[…]-3′) and HPRT_C1 (5′-[…]-3′) for the amplification of a 238 bp fragment. […]

Compound | Induction of peptide-specific CTLs (specific lysis of peptide-loaded T2 cells) [1] | Lysis of LNCaP 1740 cells by CTLs specifically recognising the peptide (LNCaP 1740 cells; HLA-A*0201-positive, prostein-expressing PCa cell line, E:T 3:1, 10:1, 30:1, 4 h 51Cr release, three donors) | Lysis of K562 cells by peptide-activated T cells (natural killer cell-like activity) (K562 cells) | rBA (%) relative binding affinity (HLA-A^*0201) | T-cell-mediated cytotoxicity against LNCaP 1740 cells deprived of androgen compared with cells grown in the presence of R1881 (LNCaP 1740 cells; 1 nM R1881 for 48 h after 24 h in charcoal-stripped FCS medium, E:T 30:1, all three donors) | Prostein mRNA expression in LNCaP 1740 under androgen deprivation compared with cells cultured in the presence of R1881 [2]
CLAAGITYV [compound 2004] | induced specific CTLs in all three donors tested | capable of lysing | failure | 94.0% | – | –
ALLPRLHQL [compound 1487] | – | – | – | 84.1% | – | –
C[C@]1(O)CC[C@H]2[C@@H]3CCC4=CC(=O)CCC4=C3C=C[C@@]21C [R1881, reference compound] | – | – | – | – | clearly reduced | downregulated but still detectable
